ChEMBL document CHEMBL4834443, “Identification of bioactive compounds from mulberry enhancing glucose-stimulated insulin secretion” (Bioorg Med Chem Lett, 2021)
Activity calls are given as the source filed them. No cut-off for these calls is given here.

Tests used:
INS1 [1] = experiment: Cytotoxicity against rat INS1 cells assessed as cell viability at 1 to 10 uM measured after 24 hrs by MTT assay; type: cell-based; conditions: ins1, 24 h, dose 1-10 µM
INS1 [2] = experiment: Stimulation of glucose stimulated insulin secretion in rat INS1 cells assessed as glucose stimulation index at 2.5 uM in presence of glucose measured after 1 hr; type: functional
INS1 [3] = experiment: Induction of insulin secretion in rat INS1 cells assessed as increase in AKT expression at 2.5 uM measured after 24 hrs by western blot assay; type: functional, cell-based
INS1 [4] = experiment: Induction of insulin secretion in rat INS1 cells assessed as increase in phosphorylation of AKT at Ser 473 at 2.5 uM measured after 24 hrs by western blot assay; type: functional, cell-based
INS1 [5] = experiment: Induction of insulin secretion in rat INS1 cells assessed as increase in IRS-2 expression at 2.5 uM measured after 24 hrs by western blot assay; type: functional, cell-based
INS1 [6] = experiment: Induction of insulin secretion in rat INS1 cells assessed as increase in PI3K expression at 2.5 uM measured after 24 hrs by western blot assay; type: functional, cell-based
INS1 [7] = experiment: Induction of insulin secretion in rat INS1 cells assessed as increase in phosphorylation of IRS 2 at Ser 731 at 2.5 uM measured after 24 hrs by western blot assay; type: functional, cell-based
INS1 [8] = experiment: Induction of insulin secretion in rat INS1 cells assessed as increase in PDX-1 expression at 2.5 uM measured after 24 hrs by western blot assay; type: functional, cell-based
INS1 [9] = experiment: Stimulation of glucose stimulated insulin secretion in rat INS1 cells assessed as glucose stimulation index at 5 uM in presence of glucose measured after 1 hr; type: functional
INS1 [10] = experiment: Induction of insulin secretion in rat INS1 cells assessed as increase in phosphorylation of PI3K at 2.5 uM measured after 24 hrs by western blot assay; type: functional, cell-based
INS1 [11] = experiment: Cytotoxicity against rat INS1 cells assessed as cell viability at 10 uM measured after 24 hrs by MTT assay; type: cell-based; conditions: ins1, 24 h
INS1 [12] = experiment: Induction of insulin secretion in rat INS1 cells assessed as increase in phosphorylation of IRS 2 at Ser 731 at 5 uM measured after 24 hrs by western blot assay; type: functional, cell-based
INS1 [13] = experiment: Induction of insulin secretion in rat INS1 cells assessed as increase in PI3K expression at 5 uM measured after 24 hrs by western blot assay; type: functional, cell-based
INS1 [14] = experiment: Induction of insulin secretion in rat INS1 cells assessed as increase in IRS-2 expression at 5 uM measured after 24 hrs by western blot assay; type: functional, cell-based
INS1 [15] = experiment: Induction of insulin secretion in rat INS1 cells assessed as increase in phosphorylation of AKT at Ser 473 at 5 uM measured after 24 hrs by western blot assay; type: functional, cell-based
INS1 [16] = experiment: Induction of insulin secretion in rat INS1 cells assessed as increase in PDX-1 expression at 5 uM measured after 24 hrs by western blot assay; type: functional, cell-based
INS1 [17] = experiment: Induction of insulin secretion in rat INS1 cells assessed as increase in AKT expression at 5 uM measured after 24 hrs by western blot assay; type: functional, cell-based
INS1 [18] = experiment: Induction of insulin secretion in rat INS1 cells assessed as increase in phosphorylation of PI3K at 5 uM measured after 24 hrs by western blot assay; type: functional, cell-based

SMILES: COC(=O)[C@@H]1CCC(=O)N1
- Activity (INS1 [1]): Non-Toxic

SMILES: C[C@@H](C(=O)O)[C@H]1CCO[C@]1(C)O
- Activity (INS1 [1]): Non-Toxic

SMILES: O=Cc1coc2ccccc12
- Activity (INS1 [1]): Non-Toxic

SMILES: O=C1CC[C@@H](O)N1
- Activity_index (INS1 [2]): 6.57
- Activity (INS1 [3]): Active
- Activity (INS1 [4]): Active
- Activity (INS1 [5]): Active
- Activity (INS1 [6]): Active
- Activity (INS1 [7]): Active
- Activity (INS1 [8]): Active
- Activity (INS1 [1]): Non-Toxic
- Activity_index (INS1 [9]): 11.31
- Activity (INS1 [10]): Active

SMILES: Cc1ccc(S(=O)(=O)NC(=O)NN2CC3CCCC3C2)cc1 (configuration not stated) [GLICLAZIDE]
- Activity_index (INS1 [2]): 2.46
- Activity (INS1 [11]): Toxic
- Activity_index (INS1 [9]): 3.47

SMILES: c1ccc2[nH]ccc2c1 [INDOLE]
- Activity (INS1 [12]): Active
- Activity (INS1 [13]): Active
- Activity_index (INS1 [2]): 3.31
- Activity (INS1 [14]): Active
- Activity (INS1 [15]): Active
- Activity (INS1 [16]): Active
- Activity (INS1 [17]): Active
- Activity (INS1 [1]): Non-Toxic
- Activity_index (INS1 [9]): 7.72
- Activity (INS1 [18]): Active

SMILES: CC1(C)C[C@H](O)C[C@@]2(C)OC(=O)C=C12 [LOLIOLIDE]
- Activity (INS1 [1]): Non-Toxic
